# Measured values as given in article PMC11191687.
# Key:
# [1] = as series A (acyl azide from hydrazide, biphasic EtOAc/buffer), isolated after prep HPLC; conditions: aq phosphate buffer (6 M GdmCl) / EtOAc biphasic, 3.0 mM, 0.25 h, 2 steps
# [2] = head-to-tail lactamisation of unprotected peptide acyl azide (from C-terminal hydrazide, 20 equiv NaNO2, pH 3, -15 C, then NaHCO3 to pH ~7), biphasic EtOAc/buffer; conditions: aq phosphate buffer (6 M GdmCl, 50 mM NaH2PO4, 1.5 mM EDTA) / EtOAc biphasic, 3.0 mM, 2 steps
# [3] = lactamisation (head-to-tail or side-chain-to-tail) of unprotected peptide acyl azide (from hydrazide, 20 equiv NaNO2, pH 3, -15 C, then NaHCO3 to pH ~7), MeCN cosolvent; conditions: from C=CC[C@H](NC(=O)[C@H](CC(C)C)NC(=O)[C@H](CC(C)C)N(C)C(=O)[C@H](C)NC(=O)[C@H](Cc1ccc(O)c([N+](=O)[O-])c1)NC(=O)[C@H](CC(C)C)N(C)C(=O)[C@@H](N)Cc1cn(C(C)(C)C=C)c2ccccc12)C(=O)N=[N+]=[N-]; 21-membered ring; aq phosphate buffer (6 M GdmCl) diluted with 2 vol 50% MeCN/water; 2.2 mM; 0.27 h; 2 steps
structure (smiles),measurement,setting,value
C=CC(C)(C)n1cc(C[C@@H]2NC(=O)[C@H](C/C=C/C)NC(=O)[C@H](CC(C)C)NC(=O)[C@H](CC(C)C)N(C)C(=O)[C@H](C)NC(=O)[C@H](Cc3ccc(O)c([N+](=O)[O-])c3)NC(=O)[C@H](CC(C)C)N(C)C2=O)c2ccccc21,"ring closure, yield over several steps","[1]; from C=CC(C)(C)n1cc(C[C@H](N)C(=O)N(C)[C@@H](CC(C)C)C(=O)N[C@@H](Cc2ccc(O)c([N+](=O)[O-])c2)C(=O)N[C@@H](C)C(=O)N(C)[C@@H](CC(C)C)C(=O)N[C@@H](CC(C)C)C(=O)N[C@@H](C/C=C/C)C(=O)N=[N+]=[N-])c2ccccc21, 21-membered ring",39%
same,"ring closure, conversion by HPLC","[2]; from C=CC(C)(C)n1cc(C[C@H](N)C(=O)N(C)[C@@H](CC(C)C)C(=O)N[C@@H](Cc2ccc(O)c([N+](=O)[O-])c2)C(=O)N[C@@H](C)C(=O)N(C)[C@@H](CC(C)C)C(=O)N[C@@H](CC(C)C)C(=O)N[C@@H](C/C=C/C)C(=O)N=[N+]=[N-])c2ccccc21, 21-membered ring, 0.25 h",84%
C=CC[C@@H]1NC(=O)[C@H](CC(C)C)NC(=O)[C@H](CC(C)C)N(C)C(=O)[C@H](C)NC(=O)[C@H](Cc2ccc(O)c([N+](=O)[O-])c2)NC(=O)[C@H](CC(C)C)N(C)C(=O)[C@@H](Cc2cn(C)c3ccccc23)NC1=O,"ring closure, conversion by HPLC","[2]; from C=CC[C@H](NC(=O)[C@H](CC(C)C)NC(=O)[C@H](CC(C)C)N(C)C(=O)[C@H](C)NC(=O)[C@H](Cc1ccc(O)c([N+](=O)[O-])c1)NC(=O)[C@H](CC(C)C)N(C)C(=O)[C@H](N)Cc1cn(C)c2ccccc12)C(=O)N=[N+]=[N-], 21-membered ring",95%
C=CC(C)(C)n1cc(C[C@@H]2NC(=O)[C@H](Cc3ccccc3)NC(=O)[C@H](CC(C)C)NC(=O)[C@H](CC(C)C)N(C)C(=O)[C@H](C)NC(=O)[C@H](Cc3ccc(O)c([N+](=O)[O-])c3)NC(=O)[C@H](CC(C)C)N(C)C2=O)c2ccccc21,"ring closure, yield over several steps","[1]; from C=CC(C)(C)n1cc(C[C@H](N)C(=O)N(C)[C@@H](CC(C)C)C(=O)N[C@@H](Cc2ccc(O)c([N+](=O)[O-])c2)C(=O)N[C@@H](C)C(=O)N(C)[C@@H](CC(C)C)C(=O)N[C@@H](CC(C)C)C(=O)N[C@@H](Cc2ccccc2)C(=O)N=[N+]=[N-])c2ccccc21, 21-membered ring",22%
same,"ring closure, conversion by HPLC","[2]; from C=CC(C)(C)n1cc(C[C@H](N)C(=O)N(C)[C@@H](CC(C)C)C(=O)N[C@@H](Cc2ccc(O)c([N+](=O)[O-])c2)C(=O)N[C@@H](C)C(=O)N(C)[C@@H](CC(C)C)C(=O)N[C@@H](CC(C)C)C(=O)N[C@@H](Cc2ccccc2)C(=O)N=[N+]=[N-])c2ccccc21, 21-membered ring, 0.25 h",63%
C=CC[C@@H]1NC(=O)[C@H](CC(C)C)N(C)C(=O)[C@H](C(C)C)NC(=O)[C@H](Cc2ccccc2)NC(=O)[C@H](C)NC(=O)[C@H](CC(C)C)N(C)C(=O)[C@H](Cc2cn(C)c3ccccc23)NC1=O [H-Trp(1-Me)-N-Me-Leu-Ala-Phe-Val-N-Me-Leu-allylGly-N3],"ring closure, yield over several steps","[1]; from C=CC[C@H](NC(=O)[C@H](CC(C)C)N(C)C(=O)[C@@H](NC(=O)[C@H](Cc1ccccc1)NC(=O)[C@H](C)NC(=O)[C@H](CC(C)C)N(C)C(=O)[C@@H](N)Cc1cn(C)c2ccccc12)C(C)C)C(=O)N=[N+]=[N-], 21-membered ring",50%
same,"ring closure, conversion by HPLC","[2]; from C=CC[C@H](NC(=O)[C@H](CC(C)C)N(C)C(=O)[C@@H](NC(=O)[C@H](Cc1ccccc1)NC(=O)[C@H](C)NC(=O)[C@H](CC(C)C)N(C)C(=O)[C@@H](N)Cc1cn(C)c2ccccc12)C(C)C)C(=O)N=[N+]=[N-], 21-membered ring, 0.25 h",75%
CC(C)C[C@@H]1NC(=O)[C@H](CC(C)C)N(C)C(=O)[C@H](C)NC(=O)[C@H](Cc2ccc(O)c([N+](=O)[O-])c2)NC(=O)[C@H](CC(C)C)N(C)C(=O)[C@H](Cc2c[nH]c3ccccc23)NC(=O)[C@H](C)NC1=O [H-Trp-N-Me-Leu-Tyr(3-NO2)-Ala-N-Me-Leu-Leu-Ala-N3],"ring closure, yield over several steps","[1]; from CC(C)C[C@H](NC(=O)[C@H](CC(C)C)N(C)C(=O)[C@H](C)NC(=O)[C@H](Cc1ccc(O)c([N+](=O)[O-])c1)NC(=O)[C@H](CC(C)C)N(C)C(=O)[C@@H](N)Cc1c[nH]c2ccccc12)C(=O)N[C@@H](C)C(=O)N=[N+]=[N-], 21-membered ring",52%
same,"ring closure, conversion by HPLC","[2]; from CC(C)C[C@H](NC(=O)[C@H](CC(C)C)N(C)C(=O)[C@H](C)NC(=O)[C@H](Cc1ccc(O)c([N+](=O)[O-])c1)NC(=O)[C@H](CC(C)C)N(C)C(=O)[C@@H](N)Cc1c[nH]c2ccccc12)C(=O)N[C@@H](C)C(=O)N=[N+]=[N-], 21-membered ring, 0.25 h",87%
C=CC[C@@H]1NC(=O)[C@H](CC(C)C)NC(=O)[C@H](CC(C)C)N(C)C(=O)[C@H](CO)NC(=O)[C@H](Cc2ccc(O)c([N+](=O)[O-])c2)NC(=O)[C@H](CC(C)C)N(C)C(=O)[C@H](Cc2c[nH]c3ccccc23)NC1=O [H-Trp-N-Me-Leu-Tyr(3-NO2)-Ser-N-Me-Leu-Leu-allylGly-N3],"ring closure, yield over several steps","[1]; from C=CC[C@H](NC(=O)[C@H](CC(C)C)NC(=O)[C@H](CC(C)C)N(C)C(=O)[C@H](CO)NC(=O)[C@H](Cc1ccc(O)c([N+](=O)[O-])c1)NC(=O)[C@H](CC(C)C)N(C)C(=O)[C@@H](N)Cc1c[nH]c2ccccc12)C(=O)N=[N+]=[N-], 21-membered ring",42%
same,"ring closure, conversion by HPLC","[2]; from C=CC[C@H](NC(=O)[C@H](CC(C)C)NC(=O)[C@H](CC(C)C)N(C)C(=O)[C@H](CO)NC(=O)[C@H](Cc1ccc(O)c([N+](=O)[O-])c1)NC(=O)[C@H](CC(C)C)N(C)C(=O)[C@@H](N)Cc1c[nH]c2ccccc12)C(=O)N=[N+]=[N-], 21-membered ring, 0.25 h",84%
CC[C@@H]1NC(=O)[C@H](CC(C)C)N(C)C(=O)[C@H](C(C)C)N(C)C(=O)[C@H](CC(C)C)N(C)C(=O)[C@H](CC(C)C)N(C)C(=O)[C@@H](C)NC(=O)[C@H](C)NC(=O)[C@H](CC(C)C)N(C)C(=O)[C@H](C(C)C)NC(=O)[C@H](CC(C)C)N(C)C(=O)CN(C)C1=O,"ring closure, yield over several steps","[1]; from CC[C@H](NC(=O)[C@H](CC(C)C)N(C)C(=O)[C@H](C(C)C)N(C)C(=O)[C@H](CC(C)C)N(C)C(=O)[C@H](CC(C)C)N(C)C(=O)[C@@H](C)N)C(=O)N(C)CC(=O)N(C)[C@@H](CC(C)C)C(=O)N[C@H](C(=O)N(C)[C@@H](CC(C)C)C(=O)N[C@@H](C)C(=O)N=[N+]=[N-])C(C)C, 33-membered ring",22%
same,"ring closure, conversion by HPLC","[2]; from CC[C@H](NC(=O)[C@H](CC(C)C)N(C)C(=O)[C@H](C(C)C)N(C)C(=O)[C@H](CC(C)C)N(C)C(=O)[C@H](CC(C)C)N(C)C(=O)[C@@H](C)N)C(=O)N(C)CC(=O)N(C)[C@@H](CC(C)C)C(=O)N[C@H](C(=O)N(C)[C@@H](CC(C)C)C(=O)N[C@@H](C)C(=O)N=[N+]=[N-])C(C)C, 33-membered ring, 0.25 h",61%
C=CC[C@@H]1NC(=O)[C@H](CC(C)C)NC(=O)[C@H](CC(C)C)N(C)C(=O)[C@H](C)NC(=O)[C@H](Cc2ccc(O)c([N+](=O)[O-])c2)NC(=O)[C@H](CC(C)C)N(C)C(=O)[C@H](Cc2cn(C)c3ccccc23)NC1=O [H-Trp(1-Me)-N-Me-Leu-Tyr(3-NO2)-Ala-N-Me-Leu-Leu-allylGly-N3],"ring closure, yield over several steps","[1]; from C=CC[C@H](NC(=O)[C@H](CC(C)C)NC(=O)[C@H](CC(C)C)N(C)C(=O)[C@H](C)NC(=O)[C@H](Cc1ccc(O)c([N+](=O)[O-])c1)NC(=O)[C@H](CC(C)C)N(C)C(=O)[C@@H](N)Cc1cn(C)c2ccccc12)C(=O)N=[N+]=[N-], 21-membered ring",58%
same,"ring closure, conversion by HPLC","[2]; from C=CC[C@H](NC(=O)[C@H](CC(C)C)NC(=O)[C@H](CC(C)C)N(C)C(=O)[C@H](C)NC(=O)[C@H](Cc1ccc(O)c([N+](=O)[O-])c1)NC(=O)[C@H](CC(C)C)N(C)C(=O)[C@@H](N)Cc1cn(C)c2ccccc12)C(=O)N=[N+]=[N-], 21-membered ring, 0.25 h",93%
C=CC[C@@H]1NC(=O)[C@H](CC(C)C)NC(=O)[C@H](CC(C)C)N(C)C(=O)[C@H](C)NC(=O)[C@H](Cc2ccc(O)c([N+](=O)[O-])c2)NC(=O)[C@H](CC(C)C)N(C)C(=O)[C@H](Cc2cn(C(C)(C)C=C)c3ccccc23)NC1=O,"ring closure, conversion by HPLC",[3],90%
same,"ring closure, yield over several steps","[1]; from C=CC[C@H](NC(=O)[C@H](CC(C)C)NC(=O)[C@H](CC(C)C)N(C)C(=O)[C@H](C)NC(=O)[C@H](Cc1ccc(O)c([N+](=O)[O-])c1)NC(=O)[C@H](CC(C)C)N(C)C(=O)[C@@H](N)Cc1cn(C(C)(C)C=C)c2ccccc12)C(=O)N=[N+]=[N-], 21-membered ring",56%
